Source: paper PMC9048745, “Physicochemical investigation of a novel curcumin diethyl γ-aminobutyrate, a carbamate ester prodrug of curcumin with enhanced anti-neuroinflammatory activity” (PLoS ONE, 2022)
Like-named read-outs stand apart in the source and are kept apart here.

Assay: Chemical stability in aqueous buffer solutions at 37°C
Format: physicochemical
Settings: for half-life at 10 μg/mL: read-out: t1/2, hydrolysis (converted)
Procedure: Chemical stability of CUR-2GE was performed at 37°C in aqueous buffer solutions at pH 1.2, 4.5, 6.8 and 7.4. CUR-2GE (1 mg) was dissolved in DMSO (1 mL) and adjusted with the diluent in a 5-mL volumetric flask to obtain a stock solution at 200 μg/mL. The stock solution was diluted with a pre-incubated buffer in a vial at 37°C at an initial concentration of 10 μg/mL [26]. Each sample was incubated at 37°C at appropriate intervals and analyzed using UPLC. The experiment was performed in triplicate. The hydrolytic products were also identified by comparing chromatographic retention times to curcumin and CUR-1GE. Kinetic profiles of CUR-2GE and its hydrolytic products, including curcumin and CUR-1GE, were determined by plotting percent peak area vs. incubation time. The linear slope of the natural logarithm of concentrations against time was used to calculate the degradation rate (k) and half-life (t1/2) using the linear pseudo-first-order model (see S1 Appendix). […]
The linear slopes of the natural logarithm of a concentration against time were used to calculate the degradation rate (k) for the pseudo-first-order (Eq. 5).
Ln [At] = Ln [A0] - kt (5)
Where A0 is the CUR-2GE concentration at time 0, At is the concentration of CUR-2GE at time t, and k is the degradation rate constant of CUR-2GE.
The half-lives (t1/2) of CUR-2GE were calculated by Eq. 6: […]

CCOC(=O)CCCNC(=O)Oc1ccc(/C=C/C(=O)/C=C(O)/C=C/c2ccc(OC(=O)NCCCC(=O)OCC)c(OC)c2)cc1OC [CUR-2GE, Curcumin diethyl γ-aminobutyrate]
hydrolysis rate in buffer pH 7.4 higher than pH 1.2 (37°C): 262 folds
hydrolysis rate in buffer pH 7.4 higher than pH 4.5 (37°C): 778 folds
hydrolysis rate in buffer pH 7.4 higher than pH 6.8 (37°C): 1.94 folds
half-life at 10 μg/mL (aqueous buffer pH 1.2, buffer pH 1.2, 37°C): 11.9 ± 0.14 h
half-life at 10 μg/mL (aqueous buffer pH 4.5, buffer pH 4.5, 37°C): 36.4 ± 8.53 h
half-life at 10 μg/mL (aqueous buffer pH 6.8, buffer pH 6.8, 37°C): 0.09 ± 0.01 h
half-life at 10 μg/mL (aqueous buffer pH 7.4, buffer pH 7.4, 37°C): 0.045 ± 0.002 h
k, pseudo-first-order hydrolysis (buffer pH 1.2, 37°C): 0.0583 ± 0.0007 h⁻¹
k, pseudo-first-order hydrolysis (buffer pH 4.5, 37°C): 0.020 ± 0.004 h⁻¹
k, pseudo-first-order hydrolysis (buffer pH 6.8, 37°C): 7.89 ± 0.54 h⁻¹
k, pseudo-first-order hydrolysis (buffer pH 7.4, 37°C): 15.31 ± 0.70 h⁻¹
